Data on 17 compounds can be found in ChEMBL document CHEMBL3808341, “Natural nitric oxide (NO) inhibitors from Chloranthus japonicus” (Bioorg Med Chem Lett, 2016).

For assay [1], the system named is RAW264.7. Description: Inhibition of LPS-induced NO production in mouse RAW264.7 cells after 24 hrs by Griess assay. To be noted: RAW264.7, 24 h. In kind it is functional, cell-based. Background: The Griess reaction detects nitrite, a stable product of nitric oxide.
Assay [2] concerns RAW264.7. Kind of assay: Inhibition of LPS-induced NO production in mouse RAW264.7 cells at 50 uM after 24 hrs by Griess assay. In kind it is functional. The conditions noted are these: RAW264.7, 24 h.

In general, IC50 refers to the concentration needed to halve the response being measured. A low value points to greater potency in that assay. As a reminder, the inhibition is the drop in the measured response relative to a control, in per cent. Lower therefore signals a response near the control.

For the compound `C=C1[C@H]2C[C@H]2[C@]2(C)[C@@H]3C[C@@]4(O)C5=C(C6=C(C)C(=O)O[C@]6(OCCCC)[C@H](O)[C@@]5(C)[C@@H]5C[C@@H]54)[C@@]34OC(=O)C(C)=C4C[C@@H]12`, in the assay on RAW264.7 [1], the IC50 stood at 39.4 µM.

Regarding `C=C1[C@H]2C[C@H]2[C@]2(C)[C@@H]3C[C@@]4(O)C5=C(C6=C(C)C(=O)O[C@]6(OC)[C@H](O)[C@@]5(C)[C@@H]5C[C@@H]54)[C@@]34OC(=O)C(C)=C4C[C@@H]12`, in the assay on RAW264.7 [2], the inhibition at 50 µM is below 50%.

Regarding `C=C1[C@H]2C[C@H]2[C@]2(C)[C@@H]3C[C@@]4(O)C5=C(C6=C(C)C(=O)O[C@]6(O)[C@H](O)[C@@]5(C)[C@@H]5C[C@@H]54)[C@@]34OC(=O)C(C)=C4C[C@@H]12`, in the assay on RAW264.7 [2], the inhibition at 50 µM was below 50%.

Compound `C=C1[C@H]2C[C@H]2[C@]2(C)[C@@H]3CC4=C5[C@H](/C(=C(/C)C(=O)OC)C(=O)[C@H](O)[C@@]5(C)[C@@H]5C[C@H]45)[C@@]34OC(=O)C(C)=C4C[C@@H]12` yielded an IC50 with RAW264.7 [1] of 26.5 µM.

Regarding `CO[C@]12OC(=O)C(C)=C1C1=C3[C@](C)([C@@H]4C[C@@H]4[C@@]3(O)C[C@@H]3[C@]14OC(=O)C1=C4C[C@H]4[C@](O)(COC(=O)/C(C)=C/COC(=O)CCC(=O)OC1)[C@H]1C[C@H]1[C@]34C)[C@H]2O`, inhibition in the assay on RAW264.7 [1] was half-maximal at 43.2 µM (IC50). Compared with the last compound, the IC50 is about 1.6-fold higher.

Consider `C=C1[C@H]2C[C@H]2[C@]2(C)[C@@H]3CC4=C5[C@H](/C(=C(\C)C(=O)OC)C(=O)C[C@@]5(C)[C@@H]5C[C@H]45)[C@@]34OC(=O)C(C)=C4C[C@@H]12`, for which 24.4 µM corresponded to half-maximal inhibition in the assay on RAW264.7 [1] (IC50).

In turn, `C/C=C(\C)C(=O)OC[C@]1(O)[C@H]2C[C@H]2[C@]2(C)[C@@H]3CC4=C5[C@H](/C(=C(\C)C(=O)OC)C(=O)[C@H](O)[C@@]5(C)[C@@H]5C[C@H]45)[C@@]34OC(=O)C(COC(=O)CCC(=O)O)=C4C[C@@H]12` displayed a half-maximal inhibitory concentration (IC50) in the assay with RAW264.7 [1] of 11.6 µM.

`C=C1[C@H]2C[C@H]2[C@@]2(C)[C@H]1[C@@H](OC(C)=O)C1=C(C)C(=O)O[C@@]13[C@@H]1C4=C(C[C@H]32)[C@H]2C[C@H]2[C@]4(C)[C@@H](O)C(=O)/C1=C(/C)C(=O)OC` showed an IC50 in the assay with RAW264.7 [1] of 25.1 µM.

`C=C1[C@H]2C[C@H]2[C@@]2(C)[C@H]1[C@@H](OC(C)=O)C1=C(C)C(=O)O[C@@]13C1=C4[C@](C)([C@@H]5C[C@@H]5[C@@]4(O)C[C@H]32)[C@@H](O)C(=O)/C1=C(/C)C(=O)OC` yielded an inhibition at 50 µM with RAW264.7 [2] below 50%.

On to `C=C1[C@H]2C[C@H]2[C@]2(C)[C@@H]3C[C@@]4(OO)C5=C(/C(=C(\C)C(=O)OC)C(=O)[C@H](O)[C@@]5(C)[C@@H]5C[C@@H]54)[C@@]34OC(=O)C(C)=C4C[C@@H]12`, for which the inhibition at 50 µM in the assay on RAW264.7 [2] is below 50%.

The compound `C=C1[C@H]2C[C@H]2[C@]2(C)[C@@H]3CC4=C5[C@H](C(C(C)C(=O)OC)=C(O)C(=O)[C@@]5(C)[C@@H]5C[C@H]45)[C@@]34OC(=O)C(C)=C4C[C@@H]12` (some centres not stated) yielded a half-maximal inhibitory concentration (IC50) in the assay with RAW264.7 [1] of 26.3 µM.

As for `C=C1[C@H]2C[C@H]2[C@]2(C)[C@@H]3[C@@H](O)C4=C5[C@H](/C(=C(\C)C(=O)OC)C(=O)[C@H](O)[C@@]5(C)[C@@H]5C[C@H]45)[C@@]34OC(=O)C(C)=C4C[C@@H]12`, in the assay on RAW264.7 [1], half-maximal inhibition (IC50) required 46.5 µM.

As to `COC(=O)/C(C)=C1\C(=O)[C@H](O)[C@]2(C)C3=C(C[C@@H]4[C@]5(OC(=O)C(CO)=C5C[C@H]5[C@H](COC(C)=O)[C@H]6C[C@H]6[C@]45C)[C@H]31)[C@H]1C[C@H]12`, the IC50 in the assay on RAW264.7 [1] is 6.91 µM.

With `C=C1[C@H]2C[C@H]2[C@]2(C)[C@@H]3CC4=C5[C@H](/C(=C(\C)C(=O)OC)C(=O)[C@H](O)[C@@]5(C)[C@@H]5C[C@H]45)[C@@]34OC(=O)C(C)=C4C[C@@H]12`, the midpoint of inhibition in the assay on RAW264.7 [1], the IC50, lay at 27 µM.

In the assay on RAW264.7 [1], `O=c1c(O)c(-c2ccc(O)c(O)c2)oc2cc(O)cc(O)c12` [QUERCETIN] gave an IC50 of 15.9 µM. Compared with the last compound, the IC50 is about 1.7-fold lower.

In turn, `COC(=O)/C(C)=C1\C(=O)[C@H](O)[C@]2(C)C3=C(C[C@@H]4[C@]5(OC(=O)C6=C5C[C@H]5[C@](O)(COC(=O)/C(C)=C/COC(=O)CCC(=O)OC6)[C@H]6C[C@H]6[C@]45C)[C@H]31)[C@H]1C[C@H]12` [SHIZUKAOL B] returned a 50% inhibitory concentration (IC50) in the assay on RAW264.7 [1] of 14.8 µM.

On to `COC(=O)/C(C)=C1\C(=O)[C@H](O)[C@]2(C)C3=C(C[C@@H]4[C@]5(OC(=O)C6=C5C[C@H]5[C@](O)(COC(=O)/C=C(\C)COC(=O)CCC(=O)OC6)[C@H]6C[C@H]6[C@]45C)[C@H]31)[C@H]1C[C@H]12` [SHIZUKAOL F], for which the 50% inhibitory concentration (IC50) with RAW264.7 [1] came to 21 µM.
